In publication PMC4354951 (European journal of medicinal chemistry, 2008):
“Also recorded” adds a separate entry of the source.

Legend:
[1] = test system: P2Y1R; conditions: cited from earlier work
[2] = pKa and degree of ionization of phosphate/phosphonate; assay type: physicochemical; conditions: physiological conditions, pH 7.4
[3] = target: T1, human NTPDase1 (Homo sapiens, UniProt P49961); assay: Hydrolysis by NTPDase1; assay type: biochemical
T1 sequence (P49961 1-510): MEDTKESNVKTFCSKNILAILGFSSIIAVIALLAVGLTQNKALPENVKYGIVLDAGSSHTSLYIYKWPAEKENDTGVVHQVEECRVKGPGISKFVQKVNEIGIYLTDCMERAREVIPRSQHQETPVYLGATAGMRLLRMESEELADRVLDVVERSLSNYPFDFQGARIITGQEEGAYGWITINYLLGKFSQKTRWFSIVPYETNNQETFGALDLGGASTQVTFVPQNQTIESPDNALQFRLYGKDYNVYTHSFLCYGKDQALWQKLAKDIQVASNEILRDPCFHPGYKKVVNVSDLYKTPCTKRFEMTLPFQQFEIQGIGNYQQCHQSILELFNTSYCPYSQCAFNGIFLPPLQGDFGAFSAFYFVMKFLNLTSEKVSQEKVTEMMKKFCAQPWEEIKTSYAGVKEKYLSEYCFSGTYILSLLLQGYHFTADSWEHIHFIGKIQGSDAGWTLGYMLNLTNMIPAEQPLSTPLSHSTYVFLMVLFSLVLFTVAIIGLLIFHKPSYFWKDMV

[4] = target: T2, human NTPDase3 (Homo sapiens, UniProt O75355); assay: Hydrolysis by NTPDase3; assay type: biochemical
T2 sequence (O75355 1-529): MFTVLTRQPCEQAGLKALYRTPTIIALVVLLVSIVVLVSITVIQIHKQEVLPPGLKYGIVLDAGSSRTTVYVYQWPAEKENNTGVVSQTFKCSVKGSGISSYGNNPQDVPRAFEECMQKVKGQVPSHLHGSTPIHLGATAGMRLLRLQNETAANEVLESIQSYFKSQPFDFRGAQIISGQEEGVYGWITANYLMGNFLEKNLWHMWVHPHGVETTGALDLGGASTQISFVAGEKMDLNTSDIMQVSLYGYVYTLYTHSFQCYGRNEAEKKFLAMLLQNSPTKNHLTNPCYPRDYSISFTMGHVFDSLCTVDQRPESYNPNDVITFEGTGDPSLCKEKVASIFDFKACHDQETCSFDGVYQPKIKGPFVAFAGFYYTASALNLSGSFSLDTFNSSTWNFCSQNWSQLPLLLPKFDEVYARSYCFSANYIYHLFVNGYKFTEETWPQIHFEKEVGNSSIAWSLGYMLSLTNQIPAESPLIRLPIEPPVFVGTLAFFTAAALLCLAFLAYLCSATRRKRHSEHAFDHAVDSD

[5] = target: T3, human NTPDase8 (Homo sapiens, UniProt Q5MY95); assay: Hydrolysis by NTPDase8; assay type: biochemical
T3 sequence (Q5MY95 1-495): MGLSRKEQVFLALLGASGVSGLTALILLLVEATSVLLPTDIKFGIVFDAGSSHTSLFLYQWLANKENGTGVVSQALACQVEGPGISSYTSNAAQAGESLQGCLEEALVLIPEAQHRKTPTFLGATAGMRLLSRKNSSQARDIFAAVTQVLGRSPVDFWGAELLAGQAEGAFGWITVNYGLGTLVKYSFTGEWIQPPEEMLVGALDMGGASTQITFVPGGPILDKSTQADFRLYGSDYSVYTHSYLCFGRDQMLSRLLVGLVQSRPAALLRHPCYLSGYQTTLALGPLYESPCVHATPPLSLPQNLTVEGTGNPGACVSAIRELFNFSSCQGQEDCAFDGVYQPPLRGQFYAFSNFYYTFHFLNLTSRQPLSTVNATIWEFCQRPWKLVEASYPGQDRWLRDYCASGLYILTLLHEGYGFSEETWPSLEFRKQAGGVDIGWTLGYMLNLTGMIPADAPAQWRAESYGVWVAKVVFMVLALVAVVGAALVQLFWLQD

[6] = Stability in human blood serum, Method B
[7] = target: T4, human NPP1 (Homo sapiens, UniProt P22413); assay: Hydrolysis by NPP1; assay type: biochemical
T4 sequence (P22413 1-925): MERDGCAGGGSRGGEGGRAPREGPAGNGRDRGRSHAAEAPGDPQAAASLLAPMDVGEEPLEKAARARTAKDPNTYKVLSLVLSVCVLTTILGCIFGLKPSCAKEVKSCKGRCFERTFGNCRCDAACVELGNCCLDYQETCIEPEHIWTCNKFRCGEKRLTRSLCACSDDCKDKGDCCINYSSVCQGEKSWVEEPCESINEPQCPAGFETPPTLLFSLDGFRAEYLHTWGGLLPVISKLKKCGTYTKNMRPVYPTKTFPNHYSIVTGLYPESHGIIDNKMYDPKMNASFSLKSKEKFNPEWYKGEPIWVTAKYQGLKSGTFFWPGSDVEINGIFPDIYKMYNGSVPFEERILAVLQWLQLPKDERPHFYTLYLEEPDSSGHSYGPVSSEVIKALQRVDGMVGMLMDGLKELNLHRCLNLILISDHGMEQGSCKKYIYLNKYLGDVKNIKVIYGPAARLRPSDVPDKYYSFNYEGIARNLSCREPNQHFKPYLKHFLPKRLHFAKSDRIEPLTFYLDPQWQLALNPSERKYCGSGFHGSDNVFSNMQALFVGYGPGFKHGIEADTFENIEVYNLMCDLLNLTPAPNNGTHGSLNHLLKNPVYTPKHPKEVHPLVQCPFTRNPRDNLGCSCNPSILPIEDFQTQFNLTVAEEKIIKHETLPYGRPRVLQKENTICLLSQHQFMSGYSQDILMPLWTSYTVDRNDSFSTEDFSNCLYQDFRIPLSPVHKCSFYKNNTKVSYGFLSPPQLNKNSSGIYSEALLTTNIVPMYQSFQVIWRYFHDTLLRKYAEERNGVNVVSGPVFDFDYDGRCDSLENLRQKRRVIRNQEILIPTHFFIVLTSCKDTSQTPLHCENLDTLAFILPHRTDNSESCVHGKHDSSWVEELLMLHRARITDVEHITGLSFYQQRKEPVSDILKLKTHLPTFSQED

[8] = target: T5, human NPP3 (Homo sapiens, UniProt O14638); assay: Hydrolysis by NPP3; assay type: biochemical
T5 sequence (O14638 1-875): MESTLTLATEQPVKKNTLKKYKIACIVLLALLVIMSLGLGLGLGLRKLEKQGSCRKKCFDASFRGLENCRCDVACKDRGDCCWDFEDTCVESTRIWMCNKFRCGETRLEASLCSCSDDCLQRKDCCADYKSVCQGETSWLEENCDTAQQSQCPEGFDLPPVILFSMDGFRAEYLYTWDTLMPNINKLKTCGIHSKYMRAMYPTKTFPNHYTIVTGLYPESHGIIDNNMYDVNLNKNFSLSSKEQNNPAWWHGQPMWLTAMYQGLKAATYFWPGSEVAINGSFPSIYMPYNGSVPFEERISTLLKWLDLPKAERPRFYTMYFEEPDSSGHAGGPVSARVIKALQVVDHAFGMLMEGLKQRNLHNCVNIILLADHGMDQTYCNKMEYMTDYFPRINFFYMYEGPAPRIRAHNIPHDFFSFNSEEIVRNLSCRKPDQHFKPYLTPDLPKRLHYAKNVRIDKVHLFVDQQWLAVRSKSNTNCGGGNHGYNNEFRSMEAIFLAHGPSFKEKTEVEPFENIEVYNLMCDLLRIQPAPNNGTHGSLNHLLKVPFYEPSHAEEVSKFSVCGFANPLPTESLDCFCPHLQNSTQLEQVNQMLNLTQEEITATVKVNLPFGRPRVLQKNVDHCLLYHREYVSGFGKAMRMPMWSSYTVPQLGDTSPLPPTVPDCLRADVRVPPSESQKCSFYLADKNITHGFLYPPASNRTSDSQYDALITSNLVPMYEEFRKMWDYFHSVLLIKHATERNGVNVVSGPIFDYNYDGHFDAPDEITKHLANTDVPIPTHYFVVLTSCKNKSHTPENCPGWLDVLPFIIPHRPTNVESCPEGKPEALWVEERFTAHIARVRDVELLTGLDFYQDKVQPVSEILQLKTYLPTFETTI

[9] = Chemical hydrolysis under gastric juice-like conditions; assay type: physicochemical
[10] = target: T6, human NTPDase2 (Homo sapiens, UniProt Q9Y5L3); assay: Hydrolysis by NTPDase2; assay type: biochemical; conditions: 100 μM substrate; relative to ATP hydrolysis (100%)
T6 sequence (Q9Y5L3 1-495): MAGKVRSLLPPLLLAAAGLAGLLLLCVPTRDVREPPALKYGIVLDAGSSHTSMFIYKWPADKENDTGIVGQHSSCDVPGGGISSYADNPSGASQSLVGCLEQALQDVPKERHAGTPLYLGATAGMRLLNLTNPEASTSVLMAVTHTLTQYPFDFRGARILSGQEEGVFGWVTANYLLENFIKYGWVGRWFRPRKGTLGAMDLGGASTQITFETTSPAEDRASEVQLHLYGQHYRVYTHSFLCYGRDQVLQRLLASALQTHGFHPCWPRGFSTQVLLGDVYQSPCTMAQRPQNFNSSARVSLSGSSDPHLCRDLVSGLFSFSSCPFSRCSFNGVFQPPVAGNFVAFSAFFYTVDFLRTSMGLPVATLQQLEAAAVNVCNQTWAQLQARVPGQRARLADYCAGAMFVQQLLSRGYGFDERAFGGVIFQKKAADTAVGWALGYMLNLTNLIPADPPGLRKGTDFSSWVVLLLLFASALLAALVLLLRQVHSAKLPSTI

[11] = target: turkey P2Y1 receptor (Meleagris gallopavo, UniProt P49652); assay type: cell-based; conditions: 1321N1 cell transfectants
Chain of turkey P2Y1 receptor (P49652 whole entry): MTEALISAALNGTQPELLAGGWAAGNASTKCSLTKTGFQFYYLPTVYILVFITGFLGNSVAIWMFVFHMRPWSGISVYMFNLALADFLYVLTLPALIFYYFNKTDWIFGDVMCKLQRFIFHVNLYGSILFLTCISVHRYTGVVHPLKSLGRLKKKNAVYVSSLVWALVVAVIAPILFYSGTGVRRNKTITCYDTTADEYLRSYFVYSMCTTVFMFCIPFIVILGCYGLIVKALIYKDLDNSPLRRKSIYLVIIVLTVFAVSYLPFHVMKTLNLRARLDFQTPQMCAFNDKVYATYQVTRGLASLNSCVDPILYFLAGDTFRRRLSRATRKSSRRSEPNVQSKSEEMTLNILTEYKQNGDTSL

[12] = target: human P2Y2 receptor (Homo sapiens, UniProt P41231); assay: Increase in [Ca2+]i in 1321N1 astrocytoma cells expressing P2Y2 receptor; assay type: cell-based; conditions: read-out: EC50 of analogue-induced increase in [Ca2+]i, P2Y2; 1321N1 cell transfectants
Chain of human P2Y2 receptor (P41231 whole entry): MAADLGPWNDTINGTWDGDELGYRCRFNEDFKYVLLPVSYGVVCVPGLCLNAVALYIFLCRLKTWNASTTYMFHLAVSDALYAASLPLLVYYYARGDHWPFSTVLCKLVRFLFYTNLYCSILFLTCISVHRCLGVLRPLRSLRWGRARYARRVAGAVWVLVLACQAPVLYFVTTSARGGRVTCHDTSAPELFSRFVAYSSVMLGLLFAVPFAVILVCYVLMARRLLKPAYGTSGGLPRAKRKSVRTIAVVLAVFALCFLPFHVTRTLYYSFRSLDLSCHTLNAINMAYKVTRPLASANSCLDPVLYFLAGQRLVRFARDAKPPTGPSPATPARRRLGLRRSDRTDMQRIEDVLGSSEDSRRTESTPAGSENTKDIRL

[13] = target: human P2Y4 receptor (Homo sapiens, UniProt P51582); assay: Increase in [Ca2+]i in 1321N1 astrocytoma cells expressing P2Y4 receptor; assay type: cell-based; conditions: read-out: EC50 of analogue-induced increase in [Ca2+]i, P2Y4; 1321N1 cell transfectants
Chain of human P2Y4 receptor (P51582 whole entry): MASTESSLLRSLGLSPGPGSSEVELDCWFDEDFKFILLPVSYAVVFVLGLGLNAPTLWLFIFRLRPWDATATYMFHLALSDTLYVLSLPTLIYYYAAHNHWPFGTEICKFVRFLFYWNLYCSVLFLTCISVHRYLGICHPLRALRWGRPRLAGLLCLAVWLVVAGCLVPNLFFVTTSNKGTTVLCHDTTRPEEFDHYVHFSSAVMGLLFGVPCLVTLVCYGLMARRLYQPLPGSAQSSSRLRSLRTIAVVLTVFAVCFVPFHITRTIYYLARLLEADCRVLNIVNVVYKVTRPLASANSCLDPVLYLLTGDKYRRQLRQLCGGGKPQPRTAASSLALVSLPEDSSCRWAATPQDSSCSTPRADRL

[14] = target: rat P2Y6 receptor (Rattus norvegicus, UniProt Q63371); assay: Increase in [Ca2+]i in 1321N1 astrocytoma cells expressing P2Y6 receptor; assay type: cell-based; conditions: read-out: EC50 of analogue-induced increase in [Ca2+]i, P2Y6; 1321N1 cell transfectants
Chain of rat P2Y6 receptor (Q63371 whole entry): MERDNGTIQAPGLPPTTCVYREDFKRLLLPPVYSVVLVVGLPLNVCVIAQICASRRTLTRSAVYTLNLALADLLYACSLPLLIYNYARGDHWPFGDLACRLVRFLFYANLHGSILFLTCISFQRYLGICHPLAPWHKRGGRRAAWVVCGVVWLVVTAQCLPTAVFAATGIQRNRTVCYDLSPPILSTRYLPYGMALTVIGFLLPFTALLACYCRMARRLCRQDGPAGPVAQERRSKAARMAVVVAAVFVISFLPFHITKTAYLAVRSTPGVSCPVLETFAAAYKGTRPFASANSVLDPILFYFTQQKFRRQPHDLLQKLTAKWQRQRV

[15] = 100 μM substrate, relative to pnp-TMP hydrolysis (100%)
[16] = 100 μM substrate, relative to ATP hydrolysis (100%)

In the case of `Nc1ncnc2c1ncn2[C@@H]1O[C@H](COP(=O)(O)OP(=O)(O)O)[C@@H](O)[C@H]1O` [ADP], the EC50 ([1]; read-out: EC50 at P2Y1R, endogenous agonist ref 1) is listed as roughly 0.1 µM.
`CSc1nc(N)c2ncn([C@@H]3O[C@H](COP(=O)(O)OP(=O)(O)OP(=O)(O)O)[C@@H](O)[C@H]3O)c2n1` [2-MeS–ATP] showed a fraction ionized [2] of 91%.
In the case of `Nc1ncnc2c1ncn2[C@@H]1O[C@H](COP(=O)(O)OP(=O)(O)OP(=O)(O)O)[C@@H](O)[C@H]1O` [ATP, reference compound], the “ATPase activity (100%) of NTPDase1” value ([3]; 100 μM ATP) is reported as 497 ± 38 nmol Pi/min·mg protein, the “ATPase activity (100%) of NTPDase3” value ([4]; 100 μM ATP) is reported as 493 ± 21 nmol Pi/min·mg protein and the “ATPase activity (100%) of NTPDase8” value ([5]; 100 μM ATP) is reported as 173 ± 18 nmol Pi/min·mg protein.
In the case of `BP(=O)(OC[C@H]1O[C@@H](n2cnc3c(N)nc(SC)nc32)[C@H](O)[C@@H]1O)OP(=O)(O)CP(=O)(O)O` (stereo partly drawn) [compound 4, 2-MeS–adenosine-5′-O-(α-boranotriphosphate)-β,γ-CH2], the “enhancement of the metabolic stability of ATP” value ([6]; human blood serum, half-life vs ATP) is reported as no less than 20 fold.
`CSc1nc(N)c2ncn([C@@H]3O[C@H](COP(=O)(O)OP(=O)(O)O)[C@@H](O)[C@H]3O)c2n1` [2-MeS-ADP] gave a fraction ionized [2] of 91%.
With `Cc1cn([C@H]2C[C@H](O)[C@@H](COP(=O)(O)Oc3ccc([N+](=O)[O-])cc3)O2)c(=O)[nH]c1=O` [pnp-TMP, p-nitrophenylthymidine-5′-monophosphate, reference compound] the “100% activity of NPP1 with pnp-TMP as substrate” value ([7]; 100 μM pnp-TMP) was 24 ± 2 nmol p-nitrophenol/min·mg protein, the “Relative activity of NPP1” value [7, 15] was 100% and the “100% activity of NPP3 with pnp-TMP as substrate” value ([8]; 100 μM pnp-TMP) was 53 ± 4 nmol p-nitrophenol/min·mg protein. The “Relative activity of NPP3” value [8, 15] was 100%.
With `[BH3-][P+](O)(OC[C@H]1O[C@@H](n2cnc3c(N)nc(SC)nc32)[C@H](O)[C@@H]1O)OP(=O)(O)CP(=O)(O)O` (single isomer, unassigned) [4B, 2-MeS–adenosine-5′-O-(α-boranotriphosphate)-β,γ-CH2] the “t1/2 of acidic hydrolysis” value ([9]; KCl/HCl buffer pH 1.4, 37 °C, 31P NMR (2) or HPLC-MS (3B, 4B)) was 14.5 h, the “Relative activity of NTPDase1” value [3, 16] was less than 1% and the “Relative activity of NTPDase2” value [10] was 1.0 ± 0.3%. The “Relative activity of NTPDase3” value [4, 16] was 2.0 ± 1.0%, the “Relative activity of NTPDase8” value [5, 16] was 3.0 ± 07% and the “agonist activity at P2Y1R” value [11] was “potent P2Y1R agonists; also recorded: active isomer”. For the same molecule, the EC50 ([11]; read-out: EC50 of analogue-induced increase in [Ca2+]i, P2Y1) was 17.2 ± 5.3 µM, the EC50 [12] was greater than 100 µM and the EC50 [13] was greater than 100 µM. For the same molecule, the EC50 [14] was greater than 100 µM and the “t1/2 in human blood serum” value ([6]; Method B, human blood serum and RPMI-1640, 37 °C) was 71.9 h.
In the case of 2-MeS–ATP-α-B [1A], the “potency of 1A isomer relative to 1B isomer at P2Y1R” value [1] is given as 20 fold.
In the case of `BP(=O)(OC[C@H]1O[C@@H](n2cnc3c(N)ncnc32)[C@H](O)[C@@H]1O)OP(=O)(O)CP(=O)(O)O` (stereo partly drawn) [compound 3, Adenosine-5′-O-(α-boranotriphosphate)-β,γ-CH2], the “improvement of chemical stability as compared to 1” value ([9]; pH 1.4, 37 °C) is reported as “ca. 3 fold”.
